Experimental data published in US20050032861A1, “Oxazolidines containing a sulfonimid group as antibiotics” (priority 2001, published 2005).
Converted amounts (≈) assume the structure as drawn.

What was measured:
Assay type in all cases: cell-based
Moraxella catarrhalis = assay: MIC, broth-dilution, fastidious Gram negative organisms; conditions: hemin and NAD, 24 h at 37° C.
Description: (§1) The following results were obtained on a standard in-vitro test system. The activity is described in terms of the minimum inhibitory concentration (MIC) determined by the broth-dilution technique with an inoculum size of 5×10^4 CFU/spot. Typically, compounds are active in the range 0.01 to 256 μg/ml. Fastidious Gram negative organisms were tested in Mueller-Hinton broth supplemented with hemin and NAD, grown aerobically for 24 h at 37° C., and with an innoculum of 5×10^4 CFU/well.

Haemophilus influenzae = assay: as above; conditions: hemin and NAD, 24 h at 37° C.
Description: as §1

Streptococcus pneumoniae = assay: MIC, broth-dilution, Streptococci in Mueller-Hinton broth with horse blood; conditions: 37° C. aerobically, 24 hours
Description: as §1, with “Streptococci” for “Fastidious Gram negative organisms”, “2.5% clarified lake horse blood” for “hemin and NAD, grown aerobically for 24 h at 37° C., and”, “10^4 CFU/well and an incubation temperature of 37° C. aerobically for 24 hours.” for “5×10^4 CFU/well.”

Streptococcus pyogenes = assay: as above; conditions: 37° C. aerobically, 24 hours
Description: as §1, with “Streptococci” for “Fastidious Gram negative organisms”, “2.5% clarified lake horse blood” for “hemin and NAD, grown aerobically for 24 h at 37° C., and”, “10^4 CFU/well and an incubation temperature of 37° C. aerobically for 24 hours.” for “5×10^4 CFU/well.”

[1] = test system: Staphylococcus aureus MRQR; assay: MIC, broth-dilution, Staphylococci in broth; conditions: Staphylococcus aureus MRQR (methicillin resistant and quinolone resistant); 37° C., 16-24 hours
Description: (§2) The following results were obtained on a standard in-vitro test system. The activity is described in terms of the minimum inhibitory concentration (MIC) determined by the broth-dilution technique with an inoculum size of 5×10^4 CFU/spot. Typically, compounds are active in the range 0.01 to 256 μg/ml.
(§3) Staphylococci were tested in broth using an inoculum of 5×10^4 CFU/spot and an incubation temperature of 37° C. for 16-24 hours.
(§4) • MSQS=methicillin sensitive and quinolone sensitive • MRQR=methincillin resistant and quinolone resistant

[2] = test system: Staphylococcus aureus MSQS; assay: MIC, broth-dilution, Staphylococci in broth; conditions: Staphylococcus aureus MSQS (methicillin sensitive and quinolone sensitive); 37° C., 16-24 hours
Description: as §2, §3, §4

Work on `N=S1(=O)CC=C(c2c(F)cc(N3C[C@H](Cn4ccnn4)OC3=O)cc2F)CC1` (stereo partly drawn) [Example 2, (5R)-3-[3,5-Difluoro-4-(1RS-1-imino-1-oxo-3,6-dihydrothiopyran-4-yl)-phenyl]-5-(1H-1,2,3-triazol-1-ylmethyl)-2-oxazolidinone] yielded an MIC (Moraxella catarrhalis) of 8 µg/mL (≈ 19.5 µM), an MIC (Haemophilus influenzae) of 8 µg/mL (≈ 19.5 µM) and an MIC (Streptococcus pneumoniae) of 2 µg/mL (≈ 4.88 µM). It also gave an MIC (Streptococcus pyogenes) of 2 µg/mL (≈ 4.88 µM), an MIC [1] of 8 µg/mL (≈ 19.5 µM) and an MIC [2] of 1 µg/mL (≈ 2.44 µM).
